# Where “and” joins values, the source holds several entries; their conditions need not be identical. Equal entries are not always repeated.
# How the values were obtained:
# [1] = system: rats (passive avoidance learning); experiment: One-trial step-through passive inhibitory avoidance task; format: in vivo
# Source text: Passive Avoidance and active avoidance task: Rats were trained and tested on a one-trial step-through passive inhibitory avoidance task with a procedure as described in Liang et al. (1998, Chin. J. Physiol. 41: 33–44). Briefly, an apparatus was a trough-shape alley divided by a sliding door into a well-lit safe compartment and a dark shock compartment. A rat was placed in the lit side facing away from the door. As the rat turned around, the door was opened. After the rat stepped into the dark compartment, it received an inescapable footshock via a constant current shocker controlled by a timer (Lafayette Instruments, Model 80240 and Model 58010, Indiana, USA). After administration of the foot-shock, the rat was removed from the alley and returned to its home cage. In a retention test given 24 hrs or 10 days later, the rat was reintroduced into the alley and the latency of stepping into the shock compartment with all four feet was taken as a retention score.
# The amygdala is also implicated in learning and memory. Studies have shown that this brain structure is particularly involved in processing affective information. See, e.g., Cahill and McGaugh (1990) Behav. Neurosci. 104: 532–543; and Gilbert et al. (1991) Behav. Neurosci. 105: 533–561. It has been reported that nitric oxide is also involved in activity-dependent synaptic plasticity and passive avoidance learning in amygdaloid nucleus. See, e.g., Bernabeu et al. (1995) NeuroReport 6: 1498–1500; Watanabe et al. (1995) Brain Res. 688: 233–236; and Teledgy and Kokavszky (1997) Neuropharmacology 36: 1583–1587. The effect of Compound 1 on passive avoidance learning was studied. Compound 1 was injected (i.p., 1 mg/kg) 10 min before foot-shock training. […] The memory lasts for several days. The retention scores were very high even if tested on day 10. There were much more rats which had retention latencies longer than 5 min in Compound 1-treated rats (2 out of 15 in a control group and 11 out of 12 in a Compound 1-treated group, respectively) tested on both day-1 and day-10. When the Compound 1 was mixed with 1.25% CMC and delivered to stomach directly (10 mg/kg) before foot-shock. The retention test was performed 1 day and 10 days later, respectively. […] Rats of 1-year-old were chosen for this experiment. Compound 1 (1 mg/kg) was i.p. injected 10 min before foot-shock. The retention test was performed 1 day and 10 days later, respectively.
# rats (spatial memory) = experiment: Morris water maze; format: in vivo
# Protocol: Morris water maze: Morris water maze was performed in a circular pool (224 cm in diameter, 46 cm in height) located in a room with distinctive visual cues. Water was filled to a depth of 36 cm and a transparent plastic platform (25×25 cm, 32 cm in height) was located at the center of a fixed quadrant. Rats were trained for two days in the task environment: free-swimming in the pool without the transparent plastic platform. Each training session was 2 min and the rats were picked up from the pool by an experimenter. Then, rats received 4 consecutive daily training trials for the following six days. During each training trial, each rat was placed into the water randomly from one of the quadrants. The rat had to swim until it climbed onto the plastic platform submerged underneath the water. The time duration from being placed into the water to climbing onto the plastic platform was recorded and defined as escape latency. […] Each rat stayed on the platform for 60 s, which also served as the interval of trial. Compound 1 (1 mg/kg) or vehicle was daily injected to each rat 10 min before the first training trial. After the last training trial of each day, each rat was dried by a towel, and an electric heater was placed in its home cage.
# Substantial evidence implicates the hippocampus in acquisition and retention of spatial information. See, e.g., Ohon et al. (1979) Behav. Brain Sci. 2: 316–365; and Barnes (1988) Trend Neurosci. 11: 163–169. The effect of Compound 1 on the acquisition of spatial memory in the Morris water maze was tested. Rats received 4 consecutive training trials every day. Compound 1 (1 mg/kg) was daily injected (i.p., 1 mg/kg) 10 min before the first trial of training. […] The escape latencies of 2˜4 trials were 93.8±8.7 s, 79.3±12/3 s and 57.6±12.5 s for a control group, and 50.4±10.2 s, 47.3±6.8 s and 30.3±10.3 for the Compound 1 group (n=10), respectively. The escape latencies of the first trial on the following 3 training days were also markedly shortened in the Compound 1 group. The escape latencies were 91.1±9.8 s, 47.1±3.9 s and 35.3±6.1 s for the control group, and 55.4±12.8 s, 15.3±2.1 s, and 13.4±1.7 s for the Compound 1 group (n=10), respectively. […] The escape latency is shorter in the Compound 1 group throughout the whole experimental period up to 21 days although Compound 1 was only administered […] for 4 days. The mean escape latency on the day-21 is 13.5±1.8 s and 6.0±0.5 s (n=10 each) for the control group and the Compound 1 group, respectively. From results shown above, Compound 1 is a promising drug for improving learning and memory. Compound 1 was mixed with 1.25% carboxymethylcellulose (CMC) and orally delivered to stomach (10 mg/kg) directly 30 min before the first trial for 6 successive days.
# Since L-NAME antagonized Compound 1-induced LTP enhancement in hippocampal slices, in vivo experiments were performed to test the effect of L-NAME on the improved learning and memory provoked by Compound 1. In these experiments, rats chronically implanted with cannulae were injected intracerebroventrically with L-NAME (1 mmole/10 mL) or saline 10 min before the first trial of daily training, concomitant with i.p. injection of Compound 1 (1 mg/kg). […] Intracerebroventricular administration of KT 5823 also impaired the Compound 1-induced enhancement.
# [2] = aged rats (1-year-old), i.p. 1 mg/kg 10 min before foot-shock
# [3] = aged rats (1-year-old), i.p. 1 mg/kg 10 min before foot-shock, 1 mg/kg
# [4] = oral 10 mg/kg in 1.25% CMC before foot-shock
# [5] = oral 10 mg/kg in 1.25% CMC before foot-shock, ceiling 300 s or 600 s, 10 mg/kg
# [6] = i.p. 1 mg/kg daily 10 min before first trial, n=10
structure (smiles),measurement,setting,value
"OCc1ccc(-c2nn(Cc3ccccc3)c3ccccc23)o1 [Compound 1, 1-benzyl-3-(5′-hydroxymethyl-2′-furyl)-indazole]","enhancement effect induced by Compound 1, with KT5823",[1]; KT5823 i.c.v. 0.2 nmole,significantly antagonized
same,"enhancement effect induced by Compound 1, with L-NAME",[1]; L-NAME i.c.v. 1 mmole,significantly antagonized
same,retention scores when given before context training,[1]; administered 10 min before the context training instead of the foot-shock,prolonged the retention scores
same,"Retention Scores Day-1, mean ± std",[1]; [2],mean ± std 233.0 ± 47.3 sec
same,"Retention Scores Day-10, mean ± std",[1]; [2],181.4 ± 55.7 s
same,"Retention Scores Day-1, individual rats",[1]; [3],>300 sec (3×) and 207.1 sec and 58.1 sec
same,"Retention Scores Day-10, individual rats",[1]; [3],252.2 s and 255.9 s and 85.8 s and >300 s and 12.9 s
same,retention latencies in the lighted compartment,[1]; i.p. 1 mg/kg 10 min before foot-shock training,markedly prolonged
same,rats with retention latencies longer than 5 min,"[1]; i.p. 1 mg/kg, tested on both day-1 and day-10",11 out of 12
same,effect on avoidance behavior when injected after foot-shock,[1]; injected 30 min after foot-shock,did not exert any effect
same,"Retention Scores Day-1, mean ± std",[1]; [4],mean ± std 369.2 ± 70.2 sec
same,"Retention Scores Day-10, mean ± std",[1]; [4],437.3 ± 62.4 s
same,"Retention Scores Day-1, individual rats",[1]; [5],>600 sec (4×) and 15.0 sec and >300 sec (4×) and 77.1 sec
same,"Retention Scores Day-10, individual rats",[1]; [5],454.0 sec and >600 sec (4×) and 15.0 sec and 207.1 sec and 453.2 sec and 343.2 sec and 500.2 sec
same,"enhanced learning and memory induced by Compound 1, with L-NAME","rats (spatial memory); L-NAME intracerebroventricular 10 min before first trial, with i.p. Compound 1 (1 mg/kg)",significantly blocked
same,"escape latency, trial 2 of first training day",rats (spatial memory); [6],50.4 ± 10.2 s
same,"escape latency, trial 3 of first training day",rats (spatial memory); [6],47.3 ± 6.8 s
same,"escape latency, trial 4 of first training day","rats (spatial memory); i.p. 1 mg/kg daily 10 min before first trial, n=10, in s (unit assumed)",30.3±10.3
same,"escape latency of the first trial, first of the following 3 training days","rats (spatial memory); i.p. 1 mg/kg, n=10",55.4 ± 12.8 s
same,"escape latency of the first trial, second of the following 3 training days","rats (spatial memory); i.p. 1 mg/kg, n=10",15.3 ± 2.1 s
same,"escape latency of the first trial, third of the following 3 training days","rats (spatial memory); i.p. 1 mg/kg, n=10",13.4 ± 1.7 s
same,mean escape latency on day-21,"rats (spatial memory); i.p. 1 mg/kg, n=10",6.0 ± 0.5 s
same,"Compound 1-induced enhancement, with KT 5823",rats (spatial memory); intracerebroventricular KT 5823,impaired
same,effect of oral administration on memory,"rats (spatial memory); oral 10 mg/kg in 1.25% CMC, 30 min before first trial for 6 successive days",promoted short-term and long-term memory

# Reference: patent US7049334B2, “Enhancement of learning and memory and treatment of amnesia” (priority 2001, dated 2006)
